According to US11319300B2, “Polyfluoro-substituted aromatic heterocyclic derivative, pharmaceutical composition containing same, and applications thereof” (ZHEJIANG UNIVERSITY, priority 2017, dated 2022):

Columns and labels:
AKT1/PKBα = biological target: T1, AKT1/PKBα (Homo sapiens, UniProt P31749); assay: Akt1 enzyme inhibitory activity, AKT1/PKBα KinEASE FP Fluorescein Green Assay; format: biochemical; details: fluorescence polarization kit assay; read-out: Akt1 IC50 (grade)
T1 construct: purchased
T1 sequence (P31749 whole entry): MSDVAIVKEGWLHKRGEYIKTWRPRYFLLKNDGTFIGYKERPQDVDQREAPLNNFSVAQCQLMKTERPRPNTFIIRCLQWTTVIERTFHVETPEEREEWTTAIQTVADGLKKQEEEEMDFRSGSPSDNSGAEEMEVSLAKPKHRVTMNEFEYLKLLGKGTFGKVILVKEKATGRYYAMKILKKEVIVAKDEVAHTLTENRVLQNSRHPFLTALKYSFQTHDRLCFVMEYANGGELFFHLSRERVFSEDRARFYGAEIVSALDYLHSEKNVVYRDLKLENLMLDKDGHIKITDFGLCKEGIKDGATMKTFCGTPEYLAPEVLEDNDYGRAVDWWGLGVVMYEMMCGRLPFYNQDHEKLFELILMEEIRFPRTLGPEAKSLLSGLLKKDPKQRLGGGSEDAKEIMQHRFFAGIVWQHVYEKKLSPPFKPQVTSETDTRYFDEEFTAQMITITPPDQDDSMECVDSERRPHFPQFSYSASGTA
Method: (§1) Compound AZD5363 (NCT02208375, NCT02208375, NCT01625286), which have entered the clinical phase II study, was used as a positive control, and the compound was assayed against common tumour cell lines (human ovarian cancer cell line OVCAR-8 and human colon cancer cell line HCT-116) by MTT assay, at the same time, the akt1 enzyme inhibitory activity (IC50) was evaluated using a commercial Akt1 kit.
2) Test method for the inhibitory activity of the compound of the present invention against Akt1 enzyme:
The AKT1/PKBα KinEASE™ FP Fluorescein Green Assay (Kinase Green Fluorescence Detection System) was used to detect the inhibitory activity of the compound on AKT1/PKBα.
Fluorescence polarization detection protein kinase B employs the principle of a competitive reaction: a fluorescently labeled phosphorylated tracer and an unlabeled phosphorylated product produced by the reaction of protein kinase B will compete with the anti-serine antibody for binding. In a reaction mixture […], when a part of the fluorescent tracer binds to the antibody, it causes a higher polarization value. However, in the reaction solution mixture containing the phosphorylated product, less tracer binds to the antibody (the fluorescent tracer was replaced from the antibody) and the emitted signal was depolarized. Therefore, the change in polarization was directly related to the activity of protein kinase B in the reaction.
The compound of the present invention and the positive control AZD5363 were dissolved in dimethyl sulfoxide (DMSO) and diluted to a concentration of 50 μM. At room temperature, 0.25 μl of the compound sample and the positive control at a concentration of 50 μM were taken and added to the 384-well plate, and three parallel wells were set for each sample, and then 10 μl of STK Substrate 3, Working Solution, 5 μl AKT1/PKBα Working Solution, 10 μl ATP Working Solution were added to each sample well plate with vibrating gently and shaking for a few minutes. The reaction starts after 10 μl of ATP Working Solution was added to the well, and the reaction was timed at room temperature for 1 hour. After one hour, 5 μl of STK Stop Mix and 5 μl of STK Antibody Mix were added to each well respectively to stop the reaction. After the addition completes, it was allowed to stand at room temperature for four hours, and the polarization value of the sample was detected by the fluorescence polarization of the microplate reader (it was effective to detect its signal within 24 hours), and the inhibition rate of the compound was calculated by the polarization value, and then IC50 was calculated.
Four sets of controls were set in the experiment, namely Buffer Control Wells, Tracer Control Wells, No Enzyme Wells, and a blank dimethyl sulfoxide control. The resulting data was used to calculate the inhibition rate.
The activity of the compound was divided into three grades according to the size of the IC50 of the Akt inhibitory activity: “+++”, 1 nM<IC50<10 nM; “++”, 10 nM<IC50<50 nM; “+”, 50 nM<IC50.

HGC27 = assay: Tumour cell proliferation inhibition, MTT assay, HGC27; format: cell-based, human
MCF-7 = assay: Tumour cell proliferation inhibition, MTT assay, MCF-7; format: cell-based, human
786-O = assay: Tumour cell proliferation inhibition, MTT assay, 786-O; format: cell-based, human
HCT-116 = assay: Tumour cell proliferation inhibition, MTT assay, HCT-116; format: cell-based, human
Method: as §1
1) The pharmacological test method for the tumour cell proliferation inhibiting activity of the compound of the present invention was as follows:
The first was the determination of in vitro tumour growth inhibitory activity and the preliminary structure-activity relationship study, and different solid tumour cell lines were used to determine the in vitro antitumour activity of the synthesized compounds.
Experimental materials: cell lines: human ovarian cancer cells (OVCAR8), colon adenocarcinoma cells (HCT-116),
Medium: OVCAR8: RPMI 1640+fetal calf serum
Drug preparation method: dissolving the drug in DMSO to make a 50 mM of stock solution, and diluting it to a certain ratio to obtain 5 different concentrations.
Tumour Cells being Cultured In Vitro:
The selected tumour cells were incubated in a, 5% of CO2 cell incubator at 37° C., and passaged until the cell density was 70 to 90% (the adherent cells were passaged with Duck's EDTA) and used for subsequent experiments.
The compound was dissolved in dimethyl sulfoxide (DMSO), diluted, and tumour cells were seeded into 4000 cells/200 μL/well in 96-well plates, and 1 μL of compound was added to each well to a final concentration of 50 μM, 10 μM, 2 μM, and 0.4 μM. 0.08 μM were incubated in a, 5% of CO2 cell incubator at 37° C. for 72 hours with DMSO (1%) as a blank control.
The calculation formula of the cell inhibition rate is: cell inhibition rate %=(control group OD value−drug group OD value)/control cell OD value×100%, and the half inhibition concentration (IC50) was determined by the Bliss method.

CEM-C1 = assay: Tumour cell proliferation inhibition, MTT assay, CEM-C1; format: cell-based, human
[1] = Oral pharmacokinetic experiment in SD rats; format: in vivo; details: oral administration
Method: […] The blood sampling times of the tail vein administered by intragastric administration were 0.25, 0.5, 1, 2, 4, 6, 8, 10, 24 hours; the times of blood collection by intravenous administration were 0.05, 0.1, 0.17, 0.5, 1, 2, 4, 6, 8, 10, 24 hours. 0.3 ml of whole blood was taken, and after centrifugation, 0.1 ml of plasma was taken and analysed by LC-MS.

[2] = rat, in vivo, 20 mg/kg, mean n = 3

IC50 (AKT1/PKBα)	IC50 (HGC27; Homo sapiens, HGC-27, 72 h)	IC50 (CEM-C1; Homo sapiens, CEM/C1, 72 h)	Structure (SMILES)	other results
> 50 nM			Cc1cc(-c2ccnn2C)cc(F)c1C(=O)N[C@@H]1CNCC[C@H]1c1ccc(F)c(F)c1 [VII-15, 4-(1-methyl-1H-pyrazole-yl)-N-((3S,4S)-4-(3,4-difluorophenyl)piperidin-3-yl)-2-methyl-6-fluorobenzamide]	
10 to 50 nM	80 nM	210 nM	Cn1nccc1-c1ccc(C(=O)N[C@@H]2CNCC[C@H]2c2c(F)c(F)cc(F)c2F)c(F)c1 [VII-9, 4-(1-methyl-1H-pyrazole-yl)-N-((3S,4S)-(2,3,5,6-tetrafluorophenyl)piperidin-3-yl)-2-fluorobenzamide]	
10 to 50 nM	40 nM	60 nM	[2H]C([2H])([2H])n1nccc1-c1ccc(C(=O)N[C@@H]2CNCC[C@H]2c2ccc(F)c(F)c2)c(F)c1 [VII-29, 4-(1-(methyl-d3)-1H-pyrazol-yl)-N-((3S,4S)-4-(3,4-difluorophenyl)piperidin-3-yl)-2 fluorobenzamide]	
> 50 nM			Cn1ncc(C2CC2)c1-c1ccc(C(=O)N[C@@H]2CNCC[C@H]2c2ccc(F)c(F)c2)c(F)c1 [VII-4]	
10 to 50 nM	40 nM	90 nM	Cn1nccc1-c1ccc(C(=O)N[C@@H]2CNCC[C@H]2c2ccc(F)c(F)c2)c(F)c1F [VII-17, 4-(1-methyl-1H-pyrazole-yl)-N-((3S,4S)-4-(3,4-difluorophenyl)piperidin-3-yl)-2,3-difluorobenzamide]	
10 to 50 nM	80 nM	110 nM	Cn1nccc1-c1cc(F)c(C(=O)N[C@@H]2CNCC[C@H]2c2ccc(F)c(F)c2)c(C(F)(F)F)c1 [VII-16, 4-(1-methyl-1H-pyrazole-yl)-N-((3S,4S)-4-(3,4-difluorophenyl)piperidin-3-yl)-2-trifluoromethyl-6-fluorobenzamide]	
10 to 50 nM			Cn1nccc1-c1ccc(C(=O)N[C@H]2CNCC[C@@H]2c2ccc(F)c(F)c2)c(F)c1 [VII-1b, 4-(1-methyl-1H-pyrazole-yl)-N-((3R,4R)-(3,4-difluorophenyl)piperidin-3-yl)-2-fluorobenzamide]	
10 to 50 nM	90 nM	160 nM	Cc1cnn(C)c1-c1ccc(C(=O)N[C@@H]2CNCC[C@H]2c2ccc(F)c(F)c2)c(F)c1 [VII-3, 4-(1,4-dimethyl-1H-pyrazole-yl)-N-((3S,4S)-4-(3,4-difluorophenyl)piperidin-3-yl)-2-fluorobenzamide]	
10 to 50 nM	40 nM	150 nM	Cn1ncc(Br)c1-c1ccc(C(=O)N[C@@H]2CNCC[C@H]2c2ccc(F)c(F)c2)c(F)c1 [VII-6, 4-(1-methyl-4-bromo-1H-pyrazole-yl)-N-((3S,4S)-(3,4-difluorophenyl)piperidin-3-yl)-2-fluorobenzamide]	

Further lines, the compound ahead of its results:

Structure (SMILES)	IC50 (AKT1/PKBα)	IC50 (HGC27; Homo sapiens, HGC-27, 72 h)	IC50 (CEM-C1; Homo sapiens, CEM/C1, 72 h)	other results
Cn1ncc(Cl)c1-c1ccc(C(=O)N[C@@H]2CNCC[C@H]2c2ccc(F)c(F)c2)c(F)c1 [VII-2, 4-(1-methyl-4-chloro-1H-pyrazole-yl)-N-((3S,4S)-(3,4-difluorophenyl)piperidin-3-yl)-2-fluorobenzamide]	10 to 50 nM	70 nM		
Cn1nccc1-c1ccc(C(=O)N[C@@H]2CNCC[C@H]2c2ccc(F)c(F)c2)c(F)c1.O=C(O)C[C@H](O)C(=O)O [VII-30, L-malate]	1 to 10 nM		80 nM	IC50 (HGC27; 72 hours, L-malate): 30 nM; IC50 (MCF-7; 72 hours, L-malate): 1580 nM; IC50 (786-O; Homo sapiens, 786-0, 72 h): 550 nM; IC50 (HCT-116; 72 hours, L-malate): 1990 nM
Cn1nccc1-c1cc(F)c(C(=O)N[C@@H]2CNC[C@H]2c2ccc(F)c(F)c2)c(F)c1 [VII-21, 4-(1-methyl-1H-pyrazole-yl)-N-((3S,4R)-(3,4-difluorophenyl)pyrrolidin-3-yl)-2,6-difluorobenzamide]	10 to 50 nM	80 nM	150 nM	
Cn1nccc1-c1ccc(C(=O)N[C@@H]2CNCC[C@H]2c2ccc(F)c(F)c2)c(F)c1.O=C(O)C(O)C(O)C(=O)O [VII-33]				1/2 ([1]; 20 mg/kg, mean n = 3): 3.69 h; AUC0-inf ([1]; 20 mg/kg, mean n = 3): 2160 ng·h/mL; AUC0-t ([1]; 20 mg/kg, mean n = 3): 1950 ng·h/mL; improvement of AUC0-t over VII-1a ([1]; salt versus free form VII-1a): 30%; Cmax [1, 2]: 200 ng/mL; Tmax [1, 2]: 4 h
Cn1nccc1-c1cc(F)c(C(=O)N[C@@H]2CNCC[C@H]2c2ccc(F)c(F)c2)c(Cl)c1 [VII-14]	10 to 50 nM	100 nM	180 nM	
Cn1ncnc1-c1ccc(C(=O)N[C@@H]2CNCC[C@H]2c2ccc(F)c(F)c2)c(F)c1 [VII-26]	10 to 50 nM	70 nM	70 nM	
Cn1nccc1-c1ccc(C(=O)N[C@@H]2CNCC[C@H]2c2ccc(F)c(F)c2)c(F)c1 [VII-31, D-malate]	1 to 10 nM			IC50 (HGC27; 72 hours, D-malate): 10 nM; IC50 (MCF-7; 72 hours, D-malate): 2960 nM; IC50 (786-O; 72 hours, D-malate): 650 nM; IC50 (HCT-116; 72 hours, D-malate): 1520 nM; IC50 (CEM-C1; 72 hours, D-malate): 100 nM
Cn1nccc1-c1ccc(C(=O)N[C@@H]2CNCC[C@H]2c2ccc(F)c(F)c2)c(F)c1 (racemic) [VII-32]	1 to 10 nM	60 nM	70 nM	IC50 (MCF-7; Homo sapiens, MCF7, 72 h): 1980 nM; IC50 (786-O; Homo sapiens, 786-0, 72 h): 910 nM; IC50 (HCT-116; Homo sapiens, HCT-116, 72 h): 980 nM
Cn1ncc(Cl)c1-c1ccc(C(=O)N[C@@H]2CNC[C@H]2c2ccc(F)c(F)c2)c(F)c1 [VII-19, 4-(1-methyl-4-chloro-1H-pyrazole-yl)-N-((3S,4R)-(3,4-difluorophenyl)pyrrolidin-3-yl)-2-fluorobenzamide]	10 to 50 nM	20 nM	60 nM	
Cn1nccc1-c1cc(F)c(C(=O)N[C@@H]2CNCC[C@H]2c2ccc(F)c(F)c2)c(F)c1F [VII-13, 4-(1-methyl-1H-pyrazole-yl)-N-((3S,4S)-4-(3,4-difluorophenyl)piperidin-3-yl)-2,3,6-trifluorobenzamide]	> 50 nM			
CCn1nccc1-c1ccc(C(=O)N[C@@H]2CNCC[C@H]2c2ccc(F)c(F)c2)c(F)c1 [VII-27, 4-(1-ethyl-1H-pyrazole-yl)-N-((3S,4S)-4-(3,4-difluorophenyl)piperidin-3-yl)-2-fluorobenzamide]	10 to 50 nM	90 nM	130 nM	
Cn1nccc1-c1ccc(S(=O)(=O)N[C@@H]2CNCC[C@H]2c2ccc(F)c(F)c2)c(F)c1 [VII-23, N-((3S,4S)-4-(3,4-difluorophenyl)piperidin-3-yl)-2-fluoro-4-(1-methyl-1H-pyrazol-5-yl)benzenesulfonamide]	> 50 nM			
O=C(N[C@@H]1CNCC[C@H]1c1ccc(F)c(F)c1)c1ccc(-c2ccnn2C2CC2)cc1F [VII-28, 4-(1-cyclopropyl-1H-pyrazol-yl)-N-((3S,4S)-4-(3,4-difluorophenyl)piperidin-3-yl)-2-fluorobenzamide]	10 to 50 nM	50 nM	100 nM	
